Data taken from ChEMBL document CHEMBL1201862, “PubChem BioAssay data set” (2004).
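All cell lines were grown in 96-well plates and treated with compound for 48 hours. GI50: concentration for 50% inhibition of growth.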 Calls of active or inactive are those of the source. Rule as the data show it: active = GI50 up to about 1.1 µM and inactive = higher.

Experiments:
Assay in all cases: inhibition of tumour cell growth, NCI panel, 48 h
HOP-62 = system: HOP-62
EKVX = system: EKVX
K562 = system: K562
LOX IMVI = system: LOX IMVI
SK-MEL-28 = system: SK-MEL-28
MDA-MB-231 = system: MDA-MB-231
NCI-H522 = system: NCI-H522
Hs-578T = system: Hs-578T
SF-295 = system: SF-295
UACC-62 = system: UACC-62
MDA-N = system: MDA-N
SNB-19 = system: SNB-19
Malme-3M = system: Malme-3M
ACHN = system: ACHN
UO-31 = system: UO-31
HOP-92 = system: HOP-92
SN12C = system: SN12C
RPMI-8226 = system: RPMI-8226
KM12 = system: KM12
T47D = system: T47D

| Compound | GI50 (HOP-62) | GI50 (EKVX) | GI50 (K562) | GI50 (LOX IMVI) | GI50 (SK-MEL-28) | GI50 (MDA-MB-231) | GI50 (NCI-H522) | GI50 (Hs-578T) | GI50 (SF-295) | GI50 (UACC-62) | GI50 (MDA-N) | GI50 (SNB-19) | GI50 (Malme-3M) | GI50 (ACHN) | GI50 (UO-31) | GI50 (HOP-92) | GI50 (SN12C) | GI50 (RPMI-8226) | GI50 (KM12) | GI50 (T47D) |
| --- | --- | --- | --- | --- | --- | --- | --- | --- | --- | --- | --- | --- | --- | --- | --- | --- | --- | --- | --- | --- |
| CC(=O)ON(C(C)=O)c1ccc(-c2nc3ccccc3s2)cc1C | 21.2 µM (inactive) | 2.77 µM (inactive) | 45.2 µM (inactive) | 37.4 µM (inactive) | 76.4 µM (inactive) | 33.8 µM (inactive) | 38.5 µM (inactive) | 37.8 µM (inactive) | 31.6 µM (inactive) | 44.3 µM (inactive) | 75.5 µM (inactive) | 50.1 µM (inactive) | > 100 µM (inactive) | 32.6 µM (inactive) | 50.2 µM (inactive) | 43.6 µM (inactive) | 31 µM (inactive) | 48.2 µM (inactive) | 47.4 µM (inactive) | – |
| O=C(O)c1cc(O)nc(SCc2ccccc2)n1 | > 100 µM (inactive) | > 100 µM (inactive) | > 100 µM (inactive) | > 100 µM (inactive) | > 100 µM (inactive) | > 100 µM (inactive) | > 100 µM (inactive) | – | > 100 µM (inactive) | > 100 µM (inactive) | > 100 µM (inactive) | > 100 µM (inactive) | > 100 µM (inactive) | > 100 µM (inactive) | > 100 µM (inactive) | > 100 µM (inactive) | > 100 µM (inactive) | – | > 100 µM (inactive) | > 100 µM (inactive) |
| CCOC(=O)C1CCC(=O)N1C(=O)c1ccccc1 (stereo not drawn) | > 100 µM (inactive) | > 100 µM (inactive) | > 100 µM (inactive) | 92.3 µM (inactive) | > 100 µM (inactive) | > 100 µM (inactive) | > 100 µM (inactive) | > 100 µM (inactive) | > 100 µM (inactive) | 7.83 µM (inactive) | – | > 100 µM (inactive) | > 100 µM (inactive) | > 100 µM (inactive) | > 100 µM (inactive) | > 100 µM (inactive) | > 100 µM (inactive) | > 100 µM (inactive) | > 100 µM (inactive) | > 100 µM (inactive) |
| COc1ccccc1NC(=S)N/N=C/c1c(C)n(C)n(-c2ccccc2)c1=O | 53.3 µM (inactive) | > 100 µM (inactive) | > 100 µM (inactive) | 49.8 µM (inactive) | > 100 µM (inactive) | > 100 µM (inactive) | – | 37.8 µM (inactive) | 59.3 µM (inactive) | > 100 µM (inactive) | – | > 100 µM (inactive) | – | > 100 µM (inactive) | > 100 µM (inactive) | 43.6 µM (inactive) | – | > 100 µM (inactive) | 31.8 µM (inactive) | > 100 µM (inactive) |
| COc1ccc(CCNC(=O)CCCCCO)cc1OC | > 100 µM (inactive) | > 100 µM (inactive) | > 100 µM (inactive) | – | > 100 µM (inactive) | > 100 µM (inactive) | > 100 µM (inactive) | > 100 µM (inactive) | > 100 µM (inactive) | > 100 µM (inactive) | – | > 100 µM (inactive) | – | > 100 µM (inactive) | > 100 µM (inactive) | > 100 µM (inactive) | > 100 µM (inactive) | > 100 µM (inactive) | > 100 µM (inactive) | > 100 µM (inactive) |
| Cc1noc(C)c1/N=N/c1ccc2nonc2c1N | 79.4 µM (inactive) | 2.66 µM (inactive) | > 10 µM (inactive) | > 100 µM (inactive) | > 100 µM (inactive) | > 100 µM (inactive) | – | – | 67.3 µM (inactive) | > 100 µM (inactive) | > 100 µM (inactive) | 26.1 µM (inactive) | > 100 µM (inactive) | > 100 µM (inactive) | 21 µM (inactive) | 87.7 µM (inactive) | > 100 µM (inactive) | > 100 µM (inactive) | > 100 µM (inactive) | > 100 µM (inactive) |
| C/C(=N/NC(=O)c1ccncc1)c1ccc(NC(=O)C(=O)Nn2c(S)nc3ccccc3c2=O)cc1 | > 100 µM (inactive) | 72.8 µM (inactive) | – | > 100 µM (inactive) | > 100 µM (inactive) | > 100 µM (inactive) | > 100 µM (inactive) | > 100 µM (inactive) | > 100 µM (inactive) | > 100 µM (inactive) | – | > 100 µM (inactive) | > 100 µM (inactive) | > 100 µM (inactive) | > 100 µM (inactive) | 59 µM (inactive) | > 100 µM (inactive) | > 100 µM (inactive) | > 100 µM (inactive) | > 100 µM (inactive) |
| N#Cc1sc2c(c1OC(=O)c1ccc(Cl)cc1Cl)c(=O)n(-c1ccccc1)c(=S)n2-c1ccccc1 | 26.4 µM (inactive) | 31.8 µM (inactive) | 17.1 µM (inactive) | 19.2 µM (inactive) | > 100 µM (inactive) | 22.8 µM (inactive) | 1.12 µM (active) | 36.7 µM (inactive) | 28.2 µM (inactive) | 18.4 µM (inactive) | – | 19.8 µM (inactive) | – | 29 µM (inactive) | 0.13 µM (active) | 20.2 µM (inactive) | 21.8 µM (inactive) | 31.7 µM (inactive) | 24 µM (inactive) | 26.6 µM (inactive) |
| O=C1CSC(c2ccccc2O)N1c1ccc(Oc2ccc(Cl)cc2)c(Cl)c1 (stereo not drawn) | 18.2 µM (inactive) | 16.8 µM (inactive) | 29.9 µM (inactive) | 16.6 µM (inactive) | 19.5 µM (inactive) | 16.9 µM (inactive) | 15.3 µM (inactive) | 14.9 µM (inactive) | 16.3 µM (inactive) | 16.4 µM (inactive) | – | 22 µM (inactive) | 11.9 µM (inactive) | 28.2 µM (inactive) | 5.94 µM (inactive) | 18.7 µM (inactive) | 22.1 µM (inactive) | 19.8 µM (inactive) | 17.5 µM (inactive) | 11.7 µM (inactive) |
| Cn1c2ccccc2n2c3ncccc3c(=O)c(C#N)c12 | 5.18 µM (inactive) | 32.8 µM (inactive) | > 100 µM (inactive) | 5.96 µM (inactive) | 44.2 µM (inactive) | 17.9 µM (inactive) | 9.02 µM (inactive) | 18.9 µM (inactive) | 7.69 µM (inactive) | 8.41 µM (inactive) | – | 8.28 µM (inactive) | 6.04 µM (inactive) | 3.09 µM (inactive) | 5.62 µM (inactive) | 19.5 µM (inactive) | 8.49 µM (inactive) | > 100 µM (inactive) | 14.6 µM (inactive) | 15.2 µM (inactive) |
| OCC1OC(n2nc(-c3ccccc3)nc2-c2cnccn2)C(O)C1O (stereo not drawn) | > 100 µM (inactive) | > 100 µM (inactive) | > 100 µM (inactive) | > 100 µM (inactive) | > 100 µM (inactive) | > 100 µM (inactive) | > 100 µM (inactive) | – | > 100 µM (inactive) | > 100 µM (inactive) | > 100 µM (inactive) | > 100 µM (inactive) | – | – | > 100 µM (inactive) | > 100 µM (inactive) | > 100 µM (inactive) | – | > 100 µM (inactive) | > 100 µM (inactive) |
| CC(C)N(/C(F)=N\C(=O)Nc1ccccc1C(F)(F)F)C(C)C | 75 µM (inactive) | 31.8 µM (inactive) | 35.8 µM (inactive) | 32 µM (inactive) | 81.5 µM (inactive) | 47.3 µM (inactive) | – | 60.3 µM (inactive) | 45.6 µM (inactive) | > 10 µM (inactive) | 66.5 µM (inactive) | 49.9 µM (inactive) | 31.6 µM (inactive) | 39.4 µM (inactive) | 45 µM (inactive) | 22.5 µM (inactive) | 37.2 µM (inactive) | 24.4 µM (inactive) | 42.5 µM (inactive) | – |
| COc1cc(C2=NNC(=O)c3ccccc3N2c2nc(-c3cccs3)nc3ccc(Br)cc23)cc(OC)c1OC | 15.6 µM (inactive) | 13 µM (inactive) | – | – | 13.3 µM (inactive) | 17.9 µM (inactive) | 9.06 µM (inactive) | 5.48 µM (inactive) | 5.06 µM (inactive) | 12.4 µM (inactive) | – | 22.6 µM (inactive) | 17.3 µM (inactive) | 7.11 µM (inactive) | 16.1 µM (inactive) | 4.83 µM (inactive) | 18.9 µM (inactive) | 2.42 µM (inactive) | 4.8 µM (inactive) | 15.1 µM (inactive) |
| Cc1cc(C)c(S(=O)(=O)N2CCCN(S(=O)(=O)c3c(C)cc(C)cc3C)OCCCON(S(=O)(=O)c3c(C)cc(C)cc3C)CCCN(S(=O)(=O)c3c(C)cc(C)cc3C)OCCCO2)c(C)c1 | > 100 µM (inactive) | > 100 µM (inactive) | > 100 µM (inactive) | > 100 µM (inactive) | > 100 µM (inactive) | > 100 µM (inactive) | > 100 µM (inactive) | 51.8 µM (inactive) | > 100 µM (inactive) | > 100 µM (inactive) | > 100 µM (inactive) | > 100 µM (inactive) | > 100 µM (inactive) | > 100 µM (inactive) | > 100 µM (inactive) | 36.1 µM (inactive) | – | 67.3 µM (inactive) | > 100 µM (inactive) | – |
| COc1cc2c(cc1OC)C(OC)N(C)c1c-2ccc2cc3c(cc12)OCO3 (stereo not drawn) | 1.4 µM (inactive) | 1.82 µM (inactive) | 1.75 µM (inactive) | 5.36 µM (inactive) | 4.28 µM (inactive) | 1.4 µM (inactive) | 0.152 µM (active) | – | 2.82 µM (inactive) | 0.8 µM (active) | 13.6 µM (inactive) | 0.665 µM (active) | 3.51 µM (inactive) | 4.69 µM (inactive) | 18.1 µM (inactive) | 2.19 µM (inactive) | 0.813 µM (active) | 1.47 µM (inactive) | 0.839 µM (active) | – |
